Test results published in PubChem BioAssay (NCI).
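Compound exposure: 48 hours, 5 concentrations, 96-well plates. GI50: concentration for 50% inhibition of growth. TGI: total growth inhibition.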

How the values were obtained:
Assay in all cases: NCI anticancer screen, dose series, 48 h
CAKI-1 renal = system: CAKI-1 renal
HS 578T breast = system: HS 578T breast
NCI-H226 lung = system: NCI-H226 lung
SF-539 CNS = system: SF-539 CNS
TK-10 renal = system: TK-10 renal
KM12 colon = system: KM12 colon
SN12C renal = system: SN12C renal
BT-549 breast = system: BT-549 breast
SF-295 CNS = system: SF-295 CNS
NCI-H460 lung = system: NCI-H460 lung
A498 renal = system: A498 renal
SNB-19 CNS = system: SNB-19 CNS
M14 melanoma = system: M14 melanoma
T-47D breast = system: T-47D breast
UACC-257 melanoma = system: UACC-257 melanoma
RXF 393 renal = system: RXF 393 renal
OVCAR-8 ovarian = system: OVCAR-8 ovarian
A549 NSCLC = system: A549 NSCLC
K-562 leukemia = system: K-562 leukemia
OVCAR-4 ovarian = system: OVCAR-4 ovarian
SNB-75 CNS = system: SNB-75 CNS
LOX IMVI melanoma = system: LOX IMVI melanoma
COLO 205 colon = system: COLO 205 colon
SK-MEL-28 melanoma = system: SK-MEL-28 melanoma
OVCAR-5 ovarian = system: OVCAR-5 ovarian
SW-620 colon = system: SW-620 colon
EKVX NSCLC = system: EKVX NSCLC
HCT-15 colon = system: HCT-15 colon
U251 CNS = system: U251 CNS
MDA-MB-231 breast = system: MDA-MB-231 breast
DU-145 prostate = system: DU-145 prostate
CCRF-CEM leukemia = system: CCRF-CEM leukemia
SK-MEL-2 melanoma = system: SK-MEL-2 melanoma
SK-OV-3 ovarian = system: SK-OV-3 ovarian
SK-MEL-5 melanoma = system: SK-MEL-5 melanoma
NCI-H522 lung = system: NCI-H522 lung
NCI-H23 lung = system: NCI-H23 lung
HOP-62 NSCLC = system: HOP-62 NSCLC
SF-268 CNS = system: SF-268 CNS
IGROV1 ovarian = system: IGROV1 ovarian
HL-60(TB) leukemia = system: HL-60(TB) leukemia
HT29 colon = system: HT29 colon
HCC-2998 colon = system: HCC-2998 colon
MALME-3M melanoma = system: MALME-3M melanoma
786-0 renal = system: 786-0 renal
MCF7 breast = system: MCF7 breast
MOLT-4 leukemia = system: MOLT-4 leukemia
RPMI-8226 leukemia = system: RPMI-8226 leukemia
MDA-MB-435 = system: MDA-MB-435
PC-3 prostate = system: PC-3 prostate
UO-31 renal = system: UO-31 renal
ACHN renal = system: ACHN renal
HCT-116 colon = system: HCT-116 colon
HOP-92 NSCLC = system: HOP-92 NSCLC
NCI/ADR-RES ovarian = system: NCI/ADR-RES ovarian
UACC-62 melanoma = system: UACC-62 melanoma

Question: What does the source list for `CC(C)(C)c1cc(NC(=O)Nc2ccc(-c3cn4c5c(sc4n3)CCc3c[nH]cc3-5)cc2)no1`?
Answer: GI50 (CAKI-1 renal): 1490 nM; TGI (CAKI-1 renal): > 50000 nM; GI50 (HS 578T breast): 950 nM; TGI (HS 578T breast): 2940 nM; GI50 (NCI-H226 lung): 2280 nM; TGI (NCI-H226 lung): > 50000 nM; GI50 (SF-539 CNS): 875 nM; TGI (SF-539 CNS): 4170 nM; GI50 (TK-10 renal): 3410 nM; TGI (TK-10 renal): > 50000 nM; GI50 (KM12 colon): 1550 nM; TGI (KM12 colon): 6100 nM; GI50 (SN12C renal): 3000 nM; TGI (SN12C renal): > 50000 nM; GI50 (BT-549 breast): 1310 nM; TGI (BT-549 breast): 4220 nM; GI50 (SF-295 CNS): 738 nM; TGI (SF-295 CNS): 1740 nM; GI50 (NCI-H460 lung): 1570 nM; TGI (NCI-H460 lung): 5340 nM; GI50 (A498 renal): 1040 nM; TGI (A498 renal): 2620 nM; GI50 (SNB-19 CNS): 1580 nM; TGI (SNB-19 CNS): > 50000 nM; GI50 (M14 melanoma): 1450 nM; TGI (M14 melanoma): 4900 nM; GI50 (T-47D breast): 1190 nM; TGI (T-47D breast): 3750 nM; GI50 (UACC-257 melanoma): 2310 nM; TGI (UACC-257 melanoma): 13900 nM; GI50 (RXF 393 renal): 333 nM; TGI (RXF 393 renal): 1800 nM; GI50 (OVCAR-8 ovarian): 2480 nM; TGI (OVCAR-8 ovarian): > 50000 nM; GI50 (A549 NSCLC): 2020 nM; TGI (A549 NSCLC): > 50000 nM; GI50 (K-562 leukemia): 1240 nM; TGI (K-562 leukemia): > 50000 nM; GI50 (OVCAR-4 ovarian): 2620 nM; TGI (OVCAR-4 ovarian): > 50000 nM; GI50 (SNB-75 CNS): 990 nM; TGI (SNB-75 CNS): 4010 nM; GI50 (LOX IMVI melanoma): 1300 nM; TGI (LOX IMVI melanoma): 3230 nM; GI50 (COLO 205 colon): 1000 nM; TGI (COLO 205 colon): 2230 nM; GI50 (SK-MEL-28 melanoma): 1540 nM; TGI (SK-MEL-28 melanoma): 9500 nM; GI50 (OVCAR-5 ovarian): 2960 nM; TGI (OVCAR-5 ovarian): > 50000 nM; GI50 (SW-620 colon): 2130 nM; TGI (SW-620 colon): 15000 nM; GI50 (EKVX NSCLC): 2050 nM; TGI (EKVX NSCLC): > 50000 nM; GI50 (HCT-15 colon): 1190 nM; TGI (HCT-15 colon): 4280 nM; GI50 (U251 CNS): 738 nM; TGI (U251 CNS): 3780 nM; GI50 (MDA-MB-231 breast): 2000 nM; TGI (MDA-MB-231 breast): 18100 nM; GI50 (DU-145 prostate): 2310 nM; TGI (DU-145 prostate): > 50000 nM; GI50 (CCRF-CEM leukemia): 1790 nM; TGI (CCRF-CEM leukemia): > 50000 nM; GI50 (SK-MEL-2 melanoma): 1240 nM; TGI (SK-MEL-2 melanoma): 3150 nM; GI50 (SK-OV-3 ovarian): 2120 nM; TGI (SK-OV-3 ovarian): 31300 nM; GI50 (SK-MEL-5 melanoma): 1020 nM; TGI (SK-MEL-5 melanoma): 2110 nM; GI50 (NCI-H522 lung): 1690 nM; TGI (NCI-H522 lung): 6700 nM; GI50 (NCI-H23 lung): 1420 nM; TGI (NCI-H23 lung): 4870 nM; GI50 (HOP-62 NSCLC): 1150 nM; TGI (HOP-62 NSCLC): 2740 nM; GI50 (SF-268 CNS): 1920 nM; TGI (SF-268 CNS): 16500 nM; GI50 (IGROV1 ovarian): 2360 nM; TGI (IGROV1 ovarian): > 50000 nM; GI50 (HL-60(TB) leukemia): 1510 nM; TGI (HL-60(TB) leukemia): > 50000 nM; GI50 (HT29 colon): 949 nM; TGI (HT29 colon): 1920 nM; GI50 (HCC-2998 colon): 1680 nM; TGI (HCC-2998 colon): 7490 nM; GI50 (MALME-3M melanoma): 1440 nM; TGI (MALME-3M melanoma): 4060 nM; GI50 (786-0 renal): 754 nM; TGI (786-0 renal): 2100 nM; GI50 (MCF7 breast): 1080 nM; TGI (MCF7 breast): 3120 nM; GI50 (MOLT-4 leukemia): 1260 nM; TGI (MOLT-4 leukemia): > 50000 nM; GI50 (RPMI-8226 leukemia): 1080 nM; TGI (RPMI-8226 leukemia): 4140 nM; GI50 (MDA-MB-435): 1970 nM; TGI (MDA-MB-435): > 50000 nM; GI50 (PC-3 prostate): 1540 nM; TGI (PC-3 prostate): > 50000 nM; GI50 (UO-31 renal): 1330 nM; TGI (UO-31 renal): 3900 nM; GI50 (ACHN renal): 1980 nM; TGI (ACHN renal): > 50000 nM; GI50 (HCT-116 colon): 1700 nM; TGI (HCT-116 colon): 12500 nM; GI50 (HOP-92 NSCLC): 1060 nM; TGI (HOP-92 NSCLC): 3670 nM; GI50 (NCI/ADR-RES ovarian): 1890 nM; TGI (NCI/ADR-RES ovarian): > 50000 nM; GI50 (UACC-62 melanoma): 1640 nM; TGI (UACC-62 melanoma): 5880 nM
